# Experimental data taken from patent US9877949B2, “Anticancer treatment methods involving analogs and derivatives of 3-(2-substituted-ethyl) indole compounds” (TUSKEGEE UNIVERSITY, priority 2013, dated 2018).
# Where “and” joins values, the source holds several entries; their conditions need not be identical. Equal entries are not always repeated. Where two headings read alike, the source gives them in different places.
# Key:
# SW480 colon cancer cells [1] = experiment: MTT assay of cell viability and proliferation; assay type: cell-based
# Description: SW480 colon cancer cells were treated with solvent DMSO (CONT), staurosporine (STS)—an agent that is known to kill cancer cells—and four select indole derivative compounds. Cell viability and proliferation was examined under a MTT assay protocol. […] The control solvent is shown as in FIG. 1A as the bar corresponding to “CONT.” When treated with only the control solvent, the cancer cells are 100% viable. Yet, according to FIG. 1A, treating cancer cells with 3-(2-bromoethyl) indole reduces cancer cell viability and proliferation by about 60% within 48 hours. As noted in FIG. 1A, 3-(2-bromoethyl) indole is represented by “INDOLE 9.” By comparison, a similar concentration of indole-3-carbinol reduces cell proliferation only by about 30%. As noted in FIG. 1A, indole-3-carbinol is represented by “INDOLE 14.”
# SW480 colon cancer cells [2] = experiment: Microscopic evaluation of cell proliferation; assay type: cell-based; settings: SW480, 25 μM, 24 and 48 hours
# Description: (§1) SW480 colon cancer cells were treated with either vehicle control (DMSO) or 25 μM 3-(2-bromoethyl) indole. […] By comparison, vehicle-treated cells rapidly proliferated and visibly filled the surface on which they were seeded. Microphotographs were taken 24 hours (a and c) and 48 hours (b and d) after the treatments. […] To further examine the possibility of inhibited cell proliferation, cell cycle analysis was performed by flow cytometry on cells that were treated with 50 μM 3-(2-bromoethyl) indole for 24 and 48 hours. […] In fact, the specific effect of treating cells with 3-(2-bromoethyl) was to “freeze” the cell growth during treatment. This is illustrated in FIG. 3.
# Increasing concentrations of 3-(2-bromoethyl) indole (from 12.5 μM to 100 μM) were tested on SW480 colon cancer cells, and viability of the treated cells was measured by the CellTiter-Glo® (Promega® Corporation) method. […] Similarly, dose response examination and cell cycle analysis using variable concentrations of 3-(2-bromoethyl) indole ranging from 12.5 to 100 μM confirms that even doses lower than 50 μM inhibit cell proliferation. […]
# SW480 cancer cells = experiment: Cell cycle analysis by flow cytometry; assay type: cell-based
# Description: as §1
# (§2) Increasing concentrations of 3-(2-bromoethyl) indole (from 12.5 μM to 100 μM) were tested on SW480 colon cancer cells, and viability of the treated cells was measured by the CellTiter-Glo® (Promega® Corporation) method. […] Similarly, dose response examination and cell cycle analysis using variable concentrations of 3-(2-bromoethyl) indole ranging from 12.5 to 100 μM confirms that even doses lower than 50 μM inhibit cell proliferation. Thus, useful embodiments of the present invention provide for a method of inhibiting cancer cell proliferation, comprising treating the cancer cells with 3-(2-bromoethyl) indole with concentrations of greater than or equal to 0.2 μM, or in a range of 1.0 μM to 50.0 μM, or more specifically, from 5.0 μM to 25.0 μM.
# It was also examined by flow cytometry whether the combination of CPT and BEI-9 would induce cell apoptosis as measured by accumulation of sub-G1 population. […] Referring to FIG. 17, cell cycle profiles of parental SW480 cells treated with DMSO (a), BEI-9 (b), CPT (c), BEI-9 and CPT co-treatment (d) or 24 hours of CPT followed by 24 hours of only BEI-9 (e) are shown. The short arrow points to the sub-G1 population of cells resulting from the combination treatment.
# SW480 colon cancer cells [3] = experiment: CellTiter-Glo cell viability; assay type: cell-based; settings: Homo sapiens; SW480, 12.5 μM; read-out: reduction in cell viability
# Description: as §2
# HCT116 cells [4] = experiment: MTS assay viability index; assay type: cell-based; settings: HCT116, variable concentrations
# Description: (§3) The activity of 3-(2-bromoethyl) indole on another colon cancer cell line, HCT116, was also tested. […] The absorbance reading at a wavelength of 490 nm is shown on the Y-axis.
# HCT116 cells [5] = experiment: Microphotograph dose response of proliferation; assay type: cell-based; settings: 5 μM and 10 μM
# Description: as §3
# SW480 cells [6] = experiment: Scratch wound healing assay; assay type: cell-based; settings: SW480, 25 μM, up to 96 hours
# Description: Scratch wound healing assay was performed on SW480 cells grown to confluence. Confluent SW480 cells were scratched with a pipette tip to create cell wounds, which were treated with vehicle control solvent (DMSO) and 25 μM 3-(2-bromoethyl) indole. The ability of the cells to migrate and fill the gap created by the scratch was evaluated. […] By comparison, vehicle-treated cells filled the scratch within 96 hours. […] The ability of the cells to migrate and fill the gap was followed by light microscopy imaging at 24-hour intervals. […] The scratch wound is most visible as a clear space at t0. […] Only a few single cells treated with 3-(2-bromoethyl) indole were visible and scattered in the gap. Moreover, there was no evidence of cell division.
# SW480 colon cancer cells [7] = experiment: Recovery after wash-out of compound; assay type: cell-based; settings: SW480, 25 μM for 48 hours, then four days in fresh medium
# Description: To examine if treated cells would recover after the compound was washed out, SW480 colon cancer cells were treated with 25 μM 3-(2-bromoethyl) indole for 48 hours, then the monolayer was rinsed 3 times with culture medium to remove the compound. The cell monolayers were left in the fresh growth medium for four days of further incubation. Results shown in FIG. 10 reveal that the vehicle-treated SW480 cells rapidly grew to full confluency in just 48 hours.
# cyclin D1 = experiment: Immunoblotting of cyclin D1 protein level; assay type: cell-based; settings: SW480, immunoblotting
# Description: (§4) Progression through the cell cycle is regulated by cyclins and their enzyme partner, cyclin dependent kinases (CDK). The regulation of the cyclin-CDK pair activity is controlled by synthesis and degradation of the cyclin moiety. Cyclin D1 is one of the regulatory cyclins involved in the G1-S transition of cells, and is a known oncogene. As cyclin D1 is a key regulator of cell cycle progression, levels of cyclin D1 protein in both control cells and treated cells were assessed by immunoblotting. Also assessed were the levels of cyclin A, another cyclin regulating both G1-S as well as G2-M transitions. […] Accordingly, inhibiting the expression of cyclins likely contributes to the observed “freezing” effect described previously.
# cyclin A = experiment: Immunoblotting of cyclin A protein level; assay type: cell-based; settings: SW480, immunoblotting
# Description: as §4
# NF-kB [8] = experiment: NF-kB luciferase reporter assay in SW480-NFL cells; assay type: cell-based
# From the text: One of the regulators of cyclin D1 is the multifunctional transcription factor NF-kB. The effect of 3-(2-bromoethyl) indole on NF-kB signaling was also examined. […] In carrying out the test, NF-kB reporter SW480 cells (SW-NFL) were used. The cells were stably transduced with a construct containing NF-kB-response elements linked to the luciferase gene as the reporter. Previous work has shown that these cells activate NF-kB in response to TNFα, as well as some clinically used chemotherapeutic drugs. As an experimental response to NF-kB activation, these cells express increased amounts of luciferase enzyme, which can be detected by luminescence assay.
# First, the effect of 3-(2-bromoethyl) indole and each of the thirteen other indole compounds on the basal levels of luciferase activity was assessed. An equal number of SW480-NFL cells seeded in a 96-well plate were treated with control vehicle (DMSO) or one of the fourteen indole-derivative test compounds. Luciferase enzyme activity was measured 24 hours after the treatment. […] See FIG. 12, where BEI-9 is the 9th indole test sample depicted in the graph.
# (§5) Second, it was determined whether cytokine-induced NF-kB activation can be blocked by 3-(2-bromoethyl) indole. In prior studies, SW480-NFL cells were tested and confirmed as being responsive to TNFα, a canonical NF-kB pathway inducer, and various clinical chemotherapeutic drugs. To this end, TNFα was first used to activate NF-kB in these reporter cells. It was examined whether co-treatment would interfere with activation of the NF-kB pathway. SW480-NFL cells were treated with 25 ng/ml TNFα as an activator, and with 0.5 μM, 5 μM, or 10 μM BEI-9 as test compound. […] The effect of such a combination treatment is shown in the […] microphotograph in FIG. 14. Referring to FIG. 14, microphotographs were taken of SW480 cells treated with vehicle control (DMSO) (top left), 25 ng/ml TNFα (top right), 5 μM 3-(2-bromoethyl) indole (bottom left), and a combination of 25 ng/ml TNFα and 5 μM 3-(2-bromoethyl) indole (bottom right). Accordingly, in addition to inhibiting NF-kB activation, the addition of 3-(2-bromoethyl) indole to TNFα treated cells may divert TNF receptor-initiated receptor signaling towards apoptosis.
# In prior art, it has been shown that camptothecin (also referred to herein as “CPT”), one of adjuvant drugs clinically used to treat various types of cancers, activates NF-kB in SW480 reporter cells at peak activating concentrations of 0.5 μM or 1.0 μM. The consequence of NF-kB activation as a result of treatment with adjuvant chemotherapy drugs is still under study. To examine whether a combination of CPT with BEI-9 suppresses a drug-induced NF-kB response in SW480 reporter cells, such cells were treated with 0.5 μM CPT and varying concentrations (0.2 μM-12.5 μM) of BEI-9.
# luciferase [9] = target: T1, luciferase (Photinus pyralis, UniProt P08659); assay type: cell-based; settings: HepG2 PXR-luciferase, 10 μM added five minutes before measuring
# T1 construct: expressed in transfected cells; host or cells: HepG2
# T1 sequence (P08659 whole entry, species assumed): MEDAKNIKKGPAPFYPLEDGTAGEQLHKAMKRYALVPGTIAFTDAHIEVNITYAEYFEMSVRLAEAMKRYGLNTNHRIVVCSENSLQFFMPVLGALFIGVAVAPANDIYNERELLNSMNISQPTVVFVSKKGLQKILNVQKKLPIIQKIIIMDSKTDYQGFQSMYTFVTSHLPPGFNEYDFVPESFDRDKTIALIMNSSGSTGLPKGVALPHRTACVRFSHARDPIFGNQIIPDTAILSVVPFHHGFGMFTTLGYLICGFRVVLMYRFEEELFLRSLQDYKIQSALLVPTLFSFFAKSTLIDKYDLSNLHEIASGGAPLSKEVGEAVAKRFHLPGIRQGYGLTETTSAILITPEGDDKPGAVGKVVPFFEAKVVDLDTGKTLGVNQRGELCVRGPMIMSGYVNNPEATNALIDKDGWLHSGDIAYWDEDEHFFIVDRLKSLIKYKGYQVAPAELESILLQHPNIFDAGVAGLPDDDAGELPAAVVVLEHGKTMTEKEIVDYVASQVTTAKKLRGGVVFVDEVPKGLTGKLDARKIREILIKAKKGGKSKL
# Description: (§6) Luciferase reporter assays are dependent on the activity of the luciferase enzyme to catalyze the conversion of luciferin to oxyluciferin in the presence of ATP and oxygen, generating light in the process. Therefore, compounds that may directly interfere with the enzyme activity should be distinguished from those that inhibit the signaling activity reported inside the cells. To test this, a PXR-luciferase reporter system expressed in HepG2 cells was used and a luciferase assay was performed by adding 10 μM BEI-9 to the cells five minutes before measuring luciferase catalyzed reactions. In parallel, ATP-dependent cell viability was also measured using a CellTiter-Glo® kit to examine if BEI-9 would compete with cellular ATP, which is required for the luciferase activity.
# luciferase [10] = experiment: ATP-dependent cell viability with CellTiter-Glo kit, competition with cellular ATP; assay type: cell-based; settings: 10 μM
# Description: as §6
# SW480 cells [11] = experiment: Microphotographs of cells for signs of apoptosis (membrane blebs); assay type: cell-based; settings: for sign of cell apoptosis, single agent: SW480, 25 ng/ml TNFα alone or 5 μM 3-(2-bromoethyl) indole alone
# Description: Microphotographs were taken of SW480 cells treated with vehicle control (DMSO) (top left), 25 ng/ml TNFα (top right), 5 μM 3-(2-bromoethyl) indole (bottom left), and a combination of 25 ng/ml TNFα and 5 μM 3-(2-bromoethyl) indole (bottom right).
# as §5
# NF-kB [12] = settings: SW480 reporter cells; cited from earlier work
compound,measurement,setting,value
BrCCc1c[nH]c2ccccc12 [3-(2-bromoethyl) indole],reduction of cancer cell viability and proliferation,"SW480 colon cancer cells [1]; SW480, within 48 hours, relative to control solvent DMSO",about 60%
same,cell proliferation by microscopic evaluation,SW480 colon cancer cells [2],failed to multiply
same,"cell cycle profile, proliferation","SW480 cancer cells; SW480, 50 μM, 24 and 48 hours",effectively prevents proliferation
same,induction of sub-G1 population indicative of apoptosis,"SW480 cancer cells; SW480, 24 and 48 hours after treatment",no apparent induction of sub-G1 population
same,"apoptosis as accumulation of sub-G1 population, sequential treatment","SW480 cancer cells; SW480, CPT for 24 hours followed by BEI-9 for 24 hours",appearance of a distinct sub-G1 population
same,doses that inhibit cell proliferation,"SW480 cancer cells; SW480, dose response examination and cell cycle analysis, 12.5 to 100 μM",lower than 50 μM
same,"apoptosis as accumulation of sub-G1 population, co-treatment of CPT and BEI-9","SW480 cancer cells; SW480, flow cytometry",did not induce apoptosis
same,"apoptosis as accumulation of sub-G1 population, single agent","SW480 cancer cells; SW480, flow cytometry",did not induce apoptosis
same,cell death in cell cycle analysis,"SW480 cancer cells; SW480, highest concentration tested 100 μM",Cell death is noticed
same,cytotoxicity at 12.5 µM,SW480 colon cancer cells [3],~50%
same,viability index (absorbance 490 nm),HCT116 cells [4],decreased the viability index
same,proliferation of HCT116 cells,HCT116 cells [5],completely stopped the proliferation
same,"motility, ability to migrate and fill the wound gap",SW480 cells [6],markedly inhibited the motility
same,recovery of cells after wash-out,SW480 colon cancer cells [7],not able to recover at all
same,expression of cyclin D1 protein,cyclin D1,drastically decreased
same,expression of cyclin A protein,cyclin A,drastically decreased
same,difference between the effects of 0.5 μM and 5 μM on TNFα-activated NF-kB reporter,"NF-kB [8]; SW480-NFL, 25 ng/ml TNFα",over 10 fold
same,activation of NF-kB reporter activity by TNFα,"NF-kB [8]; SW480-NFL, 25 ng/ml TNFα, 5 μM or 10 μM compound",completely abolished
same,basal luciferase reporter activity,"NF-kB [8]; SW480-NFL, 24 hours after treatment",reduced the reporter activity
same,effect on CPT-induced NF-kB reporter activity,"NF-kB [8]; SW480 reporter cells, 0.5 μM CPT, 0.2 μM BEI-9",did not have any noticeable effect
same,inhibition of CPT-induced NF-kB response,"NF-kB [8]; SW480 reporter cells, 0.5 μM CPT, BEI-9 concentrations greater than 0.8 μM, versus CPT-only",more than 50%
same,direct inhibition of luciferase,luciferase [9],does not inhibit luciferase
same,inhibition of luciferase by competing with cellular ATP,luciferase [10],does not inhibit luciferase
same,"sign of cell apoptosis, single agent",SW480 cells [11],fails to indicate any sign of cell apoptosis
same,"sign of cell apoptosis, combination with TNFα","SW480 cells [11]; SW480, 5 μM compound combined with 25 ng/ml TNFα",appearance of cells with membrane blebs
"COc1ccc2[nH]ccc2c1 [5-methoxyindole, reference compound]",expression of cyclin D1 protein,cyclin D1,did not exhibit the same beneficial effects
same,expression of cyclin A protein,cyclin A,did not exhibit the same beneficial effects
CC[C@@]1(O)C(=O)OCc2c1cc1n(c2=O)Cc2cc3ccccc3nc2-1 [camptothecin],"apoptosis as accumulation of sub-G1 population, single agent","SW480 cancer cells; SW480, flow cytometry",did not induce apoptosis
same,peak activating concentrations for NF-kB activation,NF-kB [12],0.5 µM and 1.0 µM
"OCc1c[nH]c2ccccc12 [indole-3-carbinol, reference compound]",reduction of cancer cell viability and proliferation,SW480 colon cancer cells [1],about 30%
TNFα,"sign of cell apoptosis, single agent",SW480 cells [11],fails to indicate any sign of cell apoptosis
